Measured values from ChEMBL document CHEMBL4052740, “Potent antiobesity effect of a short-length peptide YY-analogue continuously administered in mice” (Bioorg Med Chem Lett, 2017).
Calls of active or inactive are those of the source. The calls are words filed in the database; no cut-off is given here. Where a SMILES comes first, the peptide text is derived from it. [ ]: non-standard residue; d: D form. The star is where a group is joined. dHyp = O=C(O)[C@H]1C[C@H](O)CN1; Cha = N[C@@H](CC1CCCCC1)C(=O)O; Aib = CC(C)(N)C(=O)O; Bz = O=C(c1ccccc1)*

Key:
Mus musculus [1] = test: Anorectic activity in C57BL/6J mouse assessed as inhibition of food intake at 0.3 mg/kg/day, sc administered by infusion as continuous dosing for 3 days relative to 1 mg/kg/day PYY (3 to 36 residues); type: functional
[2] = Mean residence time in C57BL/6J mouse at 1 mg/kg, sc by LC/MS/MS analysis; type: ADME, organism-based; settings: in vivo
Mus musculus [3] = test: Mean absorption time in C57BL/6J mouse at 1 mg/kg, sc by LC/MS/MS analysis; type: ADME, organism-based; settings: in vivo
Mus musculus [4] = test: Anorectic activity in C57BL/6J mouse assessed as inhibition of food intake at 0.1 mg/kg/day, sc administered by infusion as continuous dosing for 3 days relative to 1 mg/kg/day PYY (3 to 36 residues); type: functional
[5] = target: T1, Neuropeptide Y receptor type 2 (Homo sapiens, UniProt P49146); test: Displacement of [125I]peptide YY from human Y2 receptor expressed in CHO cell membranes after 60 mins by TopCount scintillation counting analysis
T1 sequence (P49146 whole entry): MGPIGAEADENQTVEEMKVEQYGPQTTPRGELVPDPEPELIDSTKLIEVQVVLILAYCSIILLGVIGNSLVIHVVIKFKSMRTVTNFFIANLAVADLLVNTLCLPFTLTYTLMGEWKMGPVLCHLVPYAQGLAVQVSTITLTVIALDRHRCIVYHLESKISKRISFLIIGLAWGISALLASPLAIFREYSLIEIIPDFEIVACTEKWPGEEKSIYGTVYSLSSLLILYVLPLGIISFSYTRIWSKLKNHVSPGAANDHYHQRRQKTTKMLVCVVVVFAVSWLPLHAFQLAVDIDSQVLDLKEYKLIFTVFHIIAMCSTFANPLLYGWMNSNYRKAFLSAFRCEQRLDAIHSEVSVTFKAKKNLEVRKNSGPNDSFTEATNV

Mus musculus [6] = test: Anorectic activity in lean C57BL/6J mouse assessed as inhibition of cumulative food intake at 3 to 300 nmol/kg through bolus subcutaneous administration measured 24 hrs post dose; type: functional, organism-based
Mus musculus [7] = test: Anorectic activity in C57BL/6J mouse assessed as inhibition of food intake at 0.03 mg/kg/day, sc administered by infusion as continuous dosing for 3 days relative to 1 mg/kg/day PYY (3 to 36 residues); type: functional
Mus musculus [8] = test: Antiobesity activity in obese C57BL/6J mouse assessed as inhibition of cumulative food intake at 0.03 to 0.3 mg/kg/day administered via subcutaneous osmotic pumps by continuous dosing for 11 days; type: functional, organism-based
Mus musculus [9] = test: Antidiabetic activity in type 2 diabetes obese mouse assessed as reduction in glycated hemoglobin level at 0.03 to 0.3 mg/kg/day administered via subcutaneous osmotic pumps by continuous dosing for 11 days; type: functional, organism-based
[10] = Cmax in C57BL/6J mouse at 1 mg/kg, sc by LC/MS/MS analysis; type: ADME, organism-based; design: dose 1 mg/kg, route subcutaneous; settings: in vivo
Mus musculus [11] = test: Antiobesity activity in obese C57BL/6J mouse assessed as body weight loss at 0.3 mg/kg/day administered via subcutaneous osmotic pumps by continuous dosing measured on day 11 relative to control; type: functional
[12] = Plasma concentration in C57BL/6J mouse at 1 mg/kg, iv after 5 mins by LC/MS/MS analysis; type: ADME, organism-based
[13] = Mean residence time in C57BL/6J mouse at 1 mg/kg, iv by LC/MS/MS analysis; type: ADME, organism-based; settings: in vivo
[14] = AUC (0 to 24 hrs) in C57BL/6J mouse at 1 mg/kg, iv by LC/MS/MS analysis; type: ADME, organism-based; design: time < 24 hr, dose 1 mg/kg, route intravenous; settings: in vivo
[15] = Bioavailability in C57BL/6J mouse at 1 mg/kg, sc by LC/MS/MS analysis; type: ADME, organism-based; settings: in vivo
[16] = AUC (0 to 24 hrs) in C57BL/6J mouse at 1 mg/kg, sc by LC/MS/MS analysis; type: ADME, organism-based; design: dose 1 mg/kg, time < 24 hr, route subcutaneous; settings: in vivo
[17] = target: T1, Neuropeptide Y receptor type 2; test: Agonist activity at human Y2 receptor expressed in CHO cell membranes after 120 mins by [35S]GTPgammaS binding assay; type: functional
[18] = Tmax in C57BL/6J mouse at 1 mg/kg, sc by LC/MS/MS analysis; type: ADME, organism-based; settings: in vivo
[19] = Volume of distribution at steady state in C57BL/6J mouse at 1 mg/kg, iv by LC/MS/MS analysis; type: ADME, organism-based; settings: in vivo, read-out: Vdss
Mus musculus [20] = test: Anorectic activity in lean C57BL/6J mouse assessed as inhibition of cumulative food intake at 3 to 300 nmol/kg through bolus subcutaneous administration measured 3 to 24 hrs post dose; type: functional, organism-based
Mus musculus [21] = test: Antidiabetic activity in type 2 diabetes obese mouse assessed as reduction in plasma glucose level at 0.03 to 0.3 mg/kg/day administered via subcutaneous osmotic pumps by continuous dosing for 11 days; type: functional, organism-based
[22] = Total clearance in C57BL/6J mouse at 1 mg/kg, iv by LC/MS/MS analysis; type: ADME, organism-based; settings: in vivo
Mus musculus [23] = test: Anorectic activity in C57BL/6J mouse assessed as inhibition of food intake at 1 mg/kg/day, sc administered by infusion as continuous dosing for 3 days relative to 1 mg/kg/day PYY (3 to 36 residues); type: functional; settings: 72 h

SMILES: CC(=O)N[C@@H](CO)C(=O)N1CCC[C@@H]1C(=O)N[C@@H](CCCNC(=N)N)C(=O)N[C@@H](Cc1ccncc1)C(=O)N[C@@H](CC1CCCCC1)C(=O)NC(C)(C)C(=O)N[C@@H](CC(N)=O)C(=O)N[C@@H](CCCCN)C(=O)NC(C)(C)C(=O)N[C@H](C(=O)N[C@@H](CCCNC(=N)N)C(=O)N[C@@H](CCC(N)=O)C(=O)N[C@@H](CCCNC(=N)N)C(=O)N[C@@H](CC1CCCCC1)C(N)=O)[C@@H](C)O
- inhibition (INH) (Mus musculus [1]): 112%
- MRT [2]: 26.4 min
- MAT (Mus musculus [3]): 0.1 h
- inhibition (INH) (Mus musculus [4]): 80%
- IC50 [5]: 0.92 nM
- Activity (Mus musculus [6]): Active
- inhibition (INH) (Mus musculus [7]): 38%
- inhibition (Mus musculus [8]): Active
- Activity (Mus musculus [9]): Active
- Cmax [10]: 283 nM
- Activity (Mus musculus [11]): 23%
- concentration at 5 min [12]: 1060 nM
- MRT [13]: 20.4 min
- AUC(0-t) at 24 h [14]: 0.231 µM·h
- bioavailability [15]: 66.6%
- AUC(0-t) at 24 h [16]: 0.154 µM·h
- EC50 [17]: 0.2 nM
- Tmax [18]: 10.2 min
- Vd [19]: 0.809 L/kg
- inhibition (Mus musculus [20]): Active
- Activity (Mus musculus [21]): Active
- clearance [22]: 39.9 mL/min/kg

SMILES: CC(=O)N[C@@H](CO)C(=O)N1CCC[C@@H]1C(=O)N[C@@H](CCCNC(=N)N)C(=O)N[C@@H](CO)C(=O)N[C@@H](CC1CCCCC1)C(=O)N[C@@H](CC1CCCCC1)C(=O)N[C@@H](CC(N)=O)C(=O)N[C@@H](CC(C)C)C(=O)NC(C)(C)C(=O)N[C@H](C(=O)N[C@@H](CCCNC(=N)N)C(=O)N[C@@H](CCC(N)=O)C(=O)N[C@@H](CCCNC(=N)N)C(=O)N[C@@H](CC1CCCCC1)C(N)=O)[C@@H](C)O
- inhibition in vivo at 1 mg/kg/day (Mus musculus [23]): 54%
- IC50 [5]: 0.97 nM
- EC50 [17]: 0.33 nM

SMILES: CC(=O)N[C@@H](CO)C(=O)N1CCC[C@@H]1C(=O)N[C@@H](CCCNC(=N)N)C(=O)N[C@@H](Cc1cnc[nH]1)C(=O)N[C@@H](CC1CCCCC1)C(=O)N[C@@H](CC1CCCCC1)C(=O)N[C@@H](CC(N)=O)C(=O)N[C@@H](CCCCN)C(=O)NC(C)(C)C(=O)N[C@H](C(=O)N[C@@H](CCCNC(=N)N)C(=O)N[C@@H](CCC(N)=O)C(=O)N[C@@H](CCCNC(=N)N)C(=O)N[C@@H](CC1CCCCC1)C(N)=O)[C@@H](C)O
- inhibition in vivo at 1 mg/kg/day (Mus musculus [23]): 79%
- IC50 [5]: 0.55 nM
- EC50 [17]: 0.2 nM

SMILES: CC(=O)N[C@@H](CO)C(=O)N1C[C@@H](O)C[C@@H]1C(=O)N[C@@H](CCCNC(=N)N)C(=O)N[C@@H](Cc1cnc[nH]1)C(=O)N[C@@H](CC1CCCCC1)C(=O)N[C@@H](CC1CCCCC1)C(=O)N[C@@H](CC(N)=O)C(=O)N[C@@H](CC(C)C)C(=O)NC(C)(C)C(=O)N[C@H](C(=O)N[C@@H](CCCNC(=N)N)C(=O)N[C@@H](CCC(N)=O)C(=O)N[C@@H](CCCNC(=N)N)C(=O)N[C@@H](CC1CCCCC1)C(N)=O)[C@@H](C)O (Ac-S[dHyp]RH[Cha][Cha]NL[Aib]TRQR[Cha]-NH2)
- MAT (Mus musculus [3]): 0.14 h
- inhibition (INH) (Mus musculus [4]): 18%
- IC50 [5]: 0.7 nM
- bioavailability [15]: 18.6%
- EC50 [17]: 0.2 nM

SMILES: CC(C)C[C@H](NC(=O)[C@H](CC(N)=O)NC(=O)[C@H](CC1CCCCC1)NC(=O)[C@H](CC1CCCCC1)NC(=O)[C@H](Cc1cnc[nH]1)NC(=O)[C@H](CCCNC(=N)N)NC(=O)c1ccccc1)C(=O)NC(C)(C)C(=O)N[C@H](C(=O)N[C@@H](CCCNC(=N)N)C(=O)N[C@@H](CCC(N)=O)C(=O)N[C@@H](CCCNC(=N)N)C(=O)N[C@@H](CC1CCCCC1)C(N)=O)[C@@H](C)O (Bz-RH[Cha][Cha]NL[Aib]TRQR[Cha]-NH2)
- MAT (Mus musculus [3]): 2.72 h
- IC50 [5]: 7.4 nM
- bioavailability [15]: 5.9%
- EC50 [17]: 2 nM

SMILES: CC(=O)N[C@@H](CO)C(=O)N1CCC[C@@H]1C(=O)N[C@@H](CCCNC(=N)N)C(=O)N[C@@H](Cc1cnc[nH]1)C(=O)N[C@@H](CC1CCCCC1)C(=O)NC(C)(C)C(=O)N[C@@H](CC(N)=O)C(=O)N[C@@H](CC(C)C)C(=O)NC(C)(C)C(=O)N[C@H](C(=O)N[C@@H](CCCNC(=N)N)C(=O)N[C@@H](CCC(N)=O)C(=O)N[C@@H](CCCNC(=N)N)C(=O)N[C@@H](CC1CCCCC1)C(N)=O)[C@@H](C)O
- inhibition in vivo at 1 mg/kg/day (Mus musculus [23]): 59%
- IC50 [5]: 1.4 nM
- EC50 [17]: 0.66 nM

SMILES: CC(=O)N[C@@H](CO)C(=O)N1CCC[C@@H]1C(=O)N[C@@H](CCCNC(=N)N)C(=O)N[C@@H](Cc1cnc[nH]1)C(=O)N[C@@H](CC1CCCCC1)C(=O)N[C@@](C)(CC(C)C)C(=O)N[C@@H](CC(N)=O)C(=O)N[C@@H](CC(C)C)C(=O)NC(C)(C)C(=O)N[C@H](C(=O)N[C@@H](CCCNC(=N)N)C(=O)N[C@@H](CCC(N)=O)C(=O)N[C@@H](CCCNC(=N)N)C(=O)N[C@@H](CC1CCCCC1)C(N)=O)[C@@H](C)O
- inhibition in vivo at 1 mg/kg/day (Mus musculus [23]): 59%
- IC50 [5]: 0.94 nM
- EC50 [17]: 0.41 nM

SMILES: CC(=O)N[C@@H](CO)C(=O)N1CCC[C@@H]1C(=O)N[C@@H](CCCNC(=N)N)C(=O)N[C@@H](Cc1cnc[nH]1)C(=O)N[C@@H](CC1CCCCC1)C(=O)N[C@@H](CC1CCCCC1)C(=O)N[C@@H](CC(N)=O)C(=O)N[C@@H](CC(C)C)C(=O)NC(C)(C)C(=O)N[C@H](C(=O)N[C@@H](CCCNC(=N)N)C(=O)N[C@@H](CCC(N)=O)C(=O)N[C@@H](CCCNC(=N)N)C(=O)N[C@@H](CC1CCCCC1)C(N)=O)[C@@H](C)O (Ac-S[dP]RH[Cha][Cha]NL[Aib]TRQR[Cha]-NH2)
- inhibition in vivo at 1 mg/kg/day (Mus musculus [23]): 33%
- IC50 [5]: 1.5 nM
- EC50 [17]: 0.61 nM
